Assay [1] has as its system DDIT3. Briefly: UPR target gene transcription by qPCR in endothelial cells. The class given is cell-based. The conditions noted are these: 100 μM, 24 h. Here is the method:
(§1) Endothelial cells were stimulated for 24 h with 100 μM of NOD, NOT, BB, BBNB or BBNO (see Table 1 for compound structures). RNA was isolated from each sample and transcribed into cDNA. Expression of selected UPR target genes was assessed by qPCR.
(Quantitative PCR measures a nucleic acid by following its amplification.)

Assay [2] deals with HSPA5. The description is as above. Format: cell-based. The conditions noted are these: 100 μM, 24 h. Here is the method:
as §1

In assay [3] the test system is MANF. The description is as above. The settings on record: 100 μM, 24 h. Format: cell-based. On the procedure:
as §1

The subject of assay [4] is HYOU1. Described as above. Format: cell-based. The settings on record: 100 μM, 24 h. Here is the method: as §1
Assay [5] deals with HO1 (heme oxygenase-1). Briefly: HO1 expression in HUVEC, immunoblot. The class given is cell-based, human. The conditions noted are these: TNF-α 24 h, 100 μM compound. On the procedure: (§2) The anti-inflammatory effects of A-NOD and NOD were examined, specifically as to their impact on TNF-α (tumour necrosis factor alpha) mediated VCAM-1 (vascular cell adhesion molecule 1) expression. Human umbilical vein endothelial cells (HUVEC) were cultured until confluence. Hereafter the cells were stimulated for 24 h with TNF-α in the presence or absence of 100 μM NOD or A-NOD. Cells that were not stimulated (M) served as control. Cells were harvested and lysed in Laemli buffer. Hereafter, 20 μL of the lysates were boiled and subjected to SDS-PAGE. The resulting gel was blotted on PVF membranes and the membrane was subsequently incubated overnight with TBS/Tween/5% dry milk powder to block unspecific binding. The upper part of the membrane was probed with an anti-VCAM-1 antibody and the lower part with an anti-HO1 antibody (heme oxygenase-1). After thoroughly washing the membrane was incubated with appropriate HRP conjugates, bands were visualized using chemoluminescence (shown in FIG. 7).
For orientation: Immunoblotting shows a protein as a band on a membrane.

Assay [6] relates to VCAM-1. The experiment in a line: TNF-α mediated VCAM-1 expression in HUVEC, immunoblot. Format: cell-based, human. The conditions noted are these: TNF-α 24 h, 100 μM compound. Here is the method:
as §2

The subject of assay [7] is ER stress response element (ESRE). Briefly: ESRE luciferase reporter in transfected endothelial cells. Format: cell-based. The conditions noted are these: stimulated 24 hours. Here is the method:
The induction of UPR is mediated by the binding of transcription factors to an ER stress response element (ESRE) featured in the UPR (unfolded protein response) target genes. Endothelial cells were transfected by means of lentiviral transfection using a reporter luciferase construct under the control of ESRE responsive elements. After two days, the transfected cells were stimulated for 24 hours with NOD or dopamine or NPD (N-pivaloyl dopamine, also referred to as N-[2-(3,4-dihydroxyphenyl)ethyl]tert-butylamide), or N-[2-(4-hydroxyphenyl)ethyl]octanamide (referred to as NOT), or medium (control). Chemiluminescence activity of the luciferase was then measured.
A general note: A reporter such as luciferase makes a cellular process visible.

For assay [8], the system named is Human umbilical vein endothelial cells (HUVEC). Briefly: Hypothermic preservation of HUVEC, LDH release. The class given is cell-based. The settings on record: 100 μM for 1 h, then 24 hrs on ice in UW solution. On the procedure: The hypothermic preservation properties of NOD, A-NOD and N-pivaloyl dopamine (also referred to as NPD, or N-[2-(3,4-dihydroxyphenyl)ethyl]tert-butylamide) were examined. Human umbilical vein endothelial cells (HUVEC) were seeded in 24 well plates and grown until confluence. Hereafter, HUVEC were stimulated for 1 h with 100 μM of NOD, A-NOD or NPD. Cells that were not treated (Md) served as control. The medium was aspirated and the cells were stored for 24 hrs on ice in University of Wisconsin (UW) solution. Cell damage was assessed by measuring lactate dehydrogenase (LDH) release, using a commercially available LDH release assay (Roche). To this end, 100 μl of supernatant was added to 100 μl of assay reaction mixture. The plates were incubated for 30 minutes and the absorption (OD490) was assessed. All experimental conditions were performed in triplicate.
An increase in LDH activity correlates with the amount of dead or damaged cells.

Assay [9] deals with Lewis rats. The experiment in a line: Effect on body weight in ARF rat model. Format: in vivo. The settings on record: kidneys clamped 45 min, continuous infusion 10 μL/h over 5 days, 40 μmmol/mL. Here is the method:
Kidneys of Lewis rats (n=8) were clamped for 45 min to induce acute renal failure (ARF). Afterwards the rats were treated with continuous infusions (10 μL/h over 5 days) of either saline, dopamine or N-octanoyl dopamine (NOD), using an osmotic minipump. The concentration of dopamine and NOD was 40 μmmol/mL. The rats' body weight was monitored for 5 days.

The target of assay [10] is TRPV-1-receptors (Homo sapiens, UniProt Q8NER1). The conditions noted are these: Greffrath et al. 2011; results in desensitization of the receptor; cited from earlier work.
Sequence of TRPV-1-receptors (Q8NER1 whole entry): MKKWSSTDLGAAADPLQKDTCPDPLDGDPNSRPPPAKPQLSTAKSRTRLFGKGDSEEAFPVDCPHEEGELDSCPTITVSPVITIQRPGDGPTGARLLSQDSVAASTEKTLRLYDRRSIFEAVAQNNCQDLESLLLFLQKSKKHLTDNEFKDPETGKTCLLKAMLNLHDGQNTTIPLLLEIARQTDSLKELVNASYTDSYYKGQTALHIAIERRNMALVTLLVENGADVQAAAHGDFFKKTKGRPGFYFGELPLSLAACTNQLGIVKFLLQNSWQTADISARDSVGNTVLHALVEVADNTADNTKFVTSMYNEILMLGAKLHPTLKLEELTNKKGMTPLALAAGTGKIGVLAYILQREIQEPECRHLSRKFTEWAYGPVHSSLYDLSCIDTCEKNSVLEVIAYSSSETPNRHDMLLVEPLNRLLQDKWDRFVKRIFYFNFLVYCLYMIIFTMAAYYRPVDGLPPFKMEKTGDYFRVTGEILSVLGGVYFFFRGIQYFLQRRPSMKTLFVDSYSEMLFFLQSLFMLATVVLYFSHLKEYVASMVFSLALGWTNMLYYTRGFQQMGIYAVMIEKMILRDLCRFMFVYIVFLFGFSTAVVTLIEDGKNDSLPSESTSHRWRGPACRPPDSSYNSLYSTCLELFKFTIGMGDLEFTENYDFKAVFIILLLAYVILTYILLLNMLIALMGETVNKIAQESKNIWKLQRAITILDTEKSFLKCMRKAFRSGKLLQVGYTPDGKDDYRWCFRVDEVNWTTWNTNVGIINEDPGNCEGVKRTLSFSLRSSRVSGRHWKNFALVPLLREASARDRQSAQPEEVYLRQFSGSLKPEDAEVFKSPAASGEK
Assay [11] has as its system TNF-α. Briefly: TNF-α activity in renal tissue measured by PCR. The class given is in vivo, rat. The conditions noted are these: ARF rats, P<0.01.
Assay [12] relates to Lewis rats. Briefly: Renal histology after ARF (ED1-cell infiltration, necrotic tubulus cells). The conditions noted are these: in comparison with saline- and dopamine-treated rats. The class given is in vivo, rat. From the text: The kidneys of the Lewis rats of examples 3 and 4 were harvested. The renal tissue was examined with regard to the infiltration by inflammatory ED1-cells and signs of necrotic tubulus cells.

Assay [13] has as its target T1, protein disulfide isomerase (PDI) (Homo sapiens, UniProt P07237).
T1 construct: purchased
The experiment in a line: ProteoStat PDI assay kit, fluorescence-based. The class given is biochemical. The settings on record: serial dilutions, excitation about 500 nm, emission about 603 nm. On the procedure: Modulation of PDI activity by NOD was examined by using a fluorescence-based commercially available ProteoStat™ PDI assay kit and according to the kit protocol. The protocol was applied to serial dilutions of NOD, which were measured for inhibition of PDI activity using a fluorescent microplate reader at an excitation setting of about 500 nm and an emission filter of about 603 nm.

Assay [14] concerns Lewis rats. The experiment in a line: Effect on renal function (serum creatinine) in ARF rat model. The class given is in vivo. The conditions noted are these: continuous infusion over 5 days, from day 1 vs saline and day 3 vs dopamine, P<0.05. Here is the method: Kidneys of Lewis rats (n=8) were clamped for 45 min to induce acute renal failure (ARF). Afterwards the rats were treated with continuous infusions (10 μL/h over 5 days) of either saline, dopamine or N-octanoyl dopamine (NOD), using an osmotic minipump and the same concentrations as in Example 3. The rats' renal function, as measured by the serum creatinine concentration, was monitored for 5 days.

Assay [15] deals with UPR target genes. The experiment in a line: UPR gene transcription of endothelial cells under normoxic and hypoxic conditions (qPCR). Format: cell-based. The settings on record: 100 μM, 24 h. Here is the method:
Endothelial cells were cultured for 24 h under normoxic conditions in the presence or absence of 100 μM of NOD or NOT. Cells that were cultured in the absence of either compounds (medium) served as a control. In addition, the cells were cultured under hypoxic conditions for 24 h in the presence or absence of 100 μM NOD or NOT. RNA was isolated and transcribed into cDNA. The expression of a selected set of UPR target genes was assessed by qPCR.

We go through eight compounds from patent publication US20140221485A1, “LIPOPHILIC DOPAMINE DERIVATIVES AND THEIR USE” (NOVALIQ GMBH, priority 2011, published 2014).

Each structure is given as a SMILES string. “Also recorded” adds a separate entry of the source.

T1 sequence (P07237 18-508): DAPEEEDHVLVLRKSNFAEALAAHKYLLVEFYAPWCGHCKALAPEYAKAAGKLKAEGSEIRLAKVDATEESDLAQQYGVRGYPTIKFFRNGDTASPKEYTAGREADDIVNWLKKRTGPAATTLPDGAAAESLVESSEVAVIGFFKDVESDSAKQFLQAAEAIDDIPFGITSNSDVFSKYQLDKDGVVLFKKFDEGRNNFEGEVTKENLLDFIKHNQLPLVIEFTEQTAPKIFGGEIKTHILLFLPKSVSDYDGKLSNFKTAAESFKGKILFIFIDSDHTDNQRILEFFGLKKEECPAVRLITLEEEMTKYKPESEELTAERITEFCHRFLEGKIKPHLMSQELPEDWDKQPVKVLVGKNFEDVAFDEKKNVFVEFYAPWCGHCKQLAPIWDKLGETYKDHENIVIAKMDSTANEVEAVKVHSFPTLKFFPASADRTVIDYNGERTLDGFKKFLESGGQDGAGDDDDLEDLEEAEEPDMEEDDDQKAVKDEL

As for `CC(=O)Oc1ccc(OC(C)=O)c(C(=O)O)c1` [BB], in assay [1], the “Relative fold-increase of transcription compared to untreated endothelial cells, 2ΔΔ Ct, DDIT3” value (“Relative fold-increase … 2ΔΔ Ct, DDIT3” for short) turned out to be 1.01 fold. Besides, in assay [2], the “Relative fold-increase of transcription compared to untreated endothelial cells, 2ΔΔ Ct, HSPA5” value (“Relative fold-increase … 2ΔΔ Ct, HSPA5” for short) came out at 0.60 fold. In addition, the “Relative fold-increase of transcription compared to untreated endothelial cells, 2ΔΔ Ct, MANF” value (“Relative fold-increase … 2ΔΔ Ct, MANF” for short) in assay [3] is recorded as 1.03 fold. The “Relative fold-increase of transcription compared to untreated endothelial cells, 2ΔΔ Ct, HYOU1” value (“Relative fold-increase … 2ΔΔ Ct, HYOU1” below) in assay [4] was determined as 0.90 fold.

Turning to `CCCCNC(=O)c1cc(OC(C)=O)ccc1OC(C)=O` [BBNB], the “Relative fold-increase … 2ΔΔ Ct, DDIT3” value in assay [1] amounted to 0.90 fold. Further, the “Relative fold-increase … 2ΔΔ Ct, HSPA5” value in assay [2] is 0.65 fold. Further, in assay [3], the “Relative fold-increase … 2ΔΔ Ct, MANF” value is 0.99 fold. Further, the “Relative fold-increase … 2ΔΔ Ct, HYOU1” value in assay [4] is recorded as 0.84 fold.

On to `CCCCCCCC(=O)NCCc1ccc(OC(C)=O)c(OC(C)=O)c1` [A-NOD, N-(3,4-bisacetoxyphenylethyl)octanamide], for which the anti-HO1 antibody binding result in [5] is reported as “showed anti-HO1 antibody binding”. Besides, in assay [6], the “anti-VCAM-1 antibody binding (TNF-α mediated VCAM-1 expression)” value was “in the absence of A-NOD or NOD showed strong anti-VCAM-1 antibody binding in comparison to the cells co-treated with A-NOD or NOD”. Besides, in [7], the “ESRE-mediated transcription (luciferase chemiluminescence)” value is listed as “did not significantly induce transcription”. In addition, in [8], the “LDH activity (LDH release, OD490) compared to untreated cell control (Md)” value is on record as “significantly lower”.

For the compound `NCCc1ccc(O)c(O)c1` [dopamine, 4-(2-aminoethyl)benzene-1,2-diol], in assay [9] (osmotic minipump), the “body weight lost due to the ARF” value is listed as about 11%.

In the case of `CCCCCCCCNC(=O)c1cc(OC(C)=O)ccc1OC(C)=O` [BBNO], the “Relative fold-increase … 2ΔΔ Ct, DDIT3” value in [1] turned out to be 3.74 fold. Further, in assay [2], the “Relative fold-increase … 2ΔΔ Ct, HSPA5” value amounted to 1.08 fold. In addition, in assay [3], the “Relative fold-increase … 2ΔΔ Ct, MANF” value is 0.96 fold. Besides, in [4], the “Relative fold-increase … 2ΔΔ Ct, HYOU1” value is on record as 4.72 fold.

Regarding `CC(C)(C)C(=O)NCCc1ccc(O)c(O)c1` [NPD, N-[2-(3,4-dihydroxyphenyl)ethyl]tert-butylamide], the “LDH activity (LDH release, OD490) compared to untreated cell control (Md)” value in assay [8] is on record as “significantly lower”.

For `CCCCCCCC(=O)NCCc1ccc(O)c(O)c1` [NOD, N-octanoyl dopamine], the “action on TRPV-1-receptors” value in assay [10] is given as “agonist”. Besides, the anti-HO1 antibody binding result in [5] is “showed anti-HO1 antibody binding”. Moreover, in assay [6], the “anti-VCAM-1 antibody binding (TNF-α mediated VCAM-1 expression)” value is “in the absence of A-NOD or NOD showed strong anti-VCAM-1 antibody binding in comparison to the cells co-treated with A-NOD or NOD”. Besides, in assay [7], the “ESRE-mediated transcription (luciferase chemiluminescence)” value is listed as “strongly induce ESRE-mediated transcription”. Moreover, the “TNF-α activity in the renal tissue as measured by PCR” value in assay [11] is “significantly reduced”. In [9], the “change in body weight before and after the ARF (percent of original body weight)” value is listed as “no significant change; also recorded: not significantly different from 100%”. In addition, the “LDH activity (LDH release, OD490) compared to untreated cell control (Md)” value in assay [8] is recorded as “significantly lower”. Also, the “Relative fold-increase … 2ΔΔ Ct, DDIT3” value in assay [1] worked out at 37.80 fold. Further, the “Relative fold-increase … 2ΔΔ Ct, HSPA5” value in [2] is listed as 11.40 fold. The “Relative fold-increase … 2ΔΔ Ct, MANF” value in assay [3] worked out at 4.53 fold. Further, the “Relative fold-increase … 2ΔΔ Ct, HYOU1” value in assay [4] is reported as 5.17 fold. Besides, in assay [12], the “necrotic tissue in kidney” value is recorded as “less necrotic tissue”. In [12] (P<0.01), the “number of inflammatory ED1-cells in renal tissue” value was “significantly reduced number of ED1-cells”. The “inhibition of PDI activity” value in assay [13] was “inhibits PDI in a dose-dependent manner”. The “renal function as measured by serum creatinine concentration” value in assay [14] is “significantly improved renal function”. In addition, the “UPR gene transcription under hypoxic conditions” value in assay [15] (hypoxic) is “significantly higher levels of transcription”. Also, in [15] (normoxic), the “UPR gene transcription under normoxic conditions” value is recorded as “only NOD induced UPR gene transcription”.

Regarding `CCCCCCCC(=O)NCCc1ccc(O)cc1` [NOT, N-[2-(4-hydroxyphenyl)ethyl]octanamide], the “Relative fold-increase … 2ΔΔ Ct, DDIT3” value in [1] is recorded as 1.12 fold. For the same compound, the “Relative fold-increase … 2ΔΔ Ct, HSPA5” value in assay [2] was 0.94 fold. In addition, in assay [3], the “Relative fold-increase … 2ΔΔ Ct, MANF” value is given as 1.08 fold. Besides, the “Relative fold-increase … 2ΔΔ Ct, HYOU1” value in assay [4] came to 1.26 fold.
